# Data as given in patent publication US8697692B2, “Pyrrolo [3,2-c] pyridine-4-one 2-indolinone protein kinase inhibitors” (Shanghai Hengrui Pharmaceutical Co., Ltd., priority 2006, dated 2014).
# pIC50: −log10 of the molar value.
# Legend:
# [1] = system: A431 cell; assay: Cell Proliferation Inhibition EGFR Assay (SRB method); format: cell-based, homo sapient; conditions: Homo sapiens, A-431; A431 cells, 72 hours exposure, Sulforhodamine B; read-out: IC50 (A431)
# Outline: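 A431 cells grown to ~85% confluence, then exposed 72 hours at 37° C to 6 to 7 serial concentrations of compound in DMEM/F12 + 10% FBS, final DMSO ≤0.5%. Growth measured by TCA fixation and sulforhodamine B staining; IC50 calculated from inhibition rates.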
# [2] = target: T1, HER-2/ErbB2 kinase (Homo sapiens, UniProt P04626); assay: HER-2 Kinase Assay (ELISA); format: biochemical; conditions: 20 μM ATP, 25° C. 60 minutes
# T1 construct: purchased Invitrogen corporation #PV3366
# T1 sequence (P04626 23-1255): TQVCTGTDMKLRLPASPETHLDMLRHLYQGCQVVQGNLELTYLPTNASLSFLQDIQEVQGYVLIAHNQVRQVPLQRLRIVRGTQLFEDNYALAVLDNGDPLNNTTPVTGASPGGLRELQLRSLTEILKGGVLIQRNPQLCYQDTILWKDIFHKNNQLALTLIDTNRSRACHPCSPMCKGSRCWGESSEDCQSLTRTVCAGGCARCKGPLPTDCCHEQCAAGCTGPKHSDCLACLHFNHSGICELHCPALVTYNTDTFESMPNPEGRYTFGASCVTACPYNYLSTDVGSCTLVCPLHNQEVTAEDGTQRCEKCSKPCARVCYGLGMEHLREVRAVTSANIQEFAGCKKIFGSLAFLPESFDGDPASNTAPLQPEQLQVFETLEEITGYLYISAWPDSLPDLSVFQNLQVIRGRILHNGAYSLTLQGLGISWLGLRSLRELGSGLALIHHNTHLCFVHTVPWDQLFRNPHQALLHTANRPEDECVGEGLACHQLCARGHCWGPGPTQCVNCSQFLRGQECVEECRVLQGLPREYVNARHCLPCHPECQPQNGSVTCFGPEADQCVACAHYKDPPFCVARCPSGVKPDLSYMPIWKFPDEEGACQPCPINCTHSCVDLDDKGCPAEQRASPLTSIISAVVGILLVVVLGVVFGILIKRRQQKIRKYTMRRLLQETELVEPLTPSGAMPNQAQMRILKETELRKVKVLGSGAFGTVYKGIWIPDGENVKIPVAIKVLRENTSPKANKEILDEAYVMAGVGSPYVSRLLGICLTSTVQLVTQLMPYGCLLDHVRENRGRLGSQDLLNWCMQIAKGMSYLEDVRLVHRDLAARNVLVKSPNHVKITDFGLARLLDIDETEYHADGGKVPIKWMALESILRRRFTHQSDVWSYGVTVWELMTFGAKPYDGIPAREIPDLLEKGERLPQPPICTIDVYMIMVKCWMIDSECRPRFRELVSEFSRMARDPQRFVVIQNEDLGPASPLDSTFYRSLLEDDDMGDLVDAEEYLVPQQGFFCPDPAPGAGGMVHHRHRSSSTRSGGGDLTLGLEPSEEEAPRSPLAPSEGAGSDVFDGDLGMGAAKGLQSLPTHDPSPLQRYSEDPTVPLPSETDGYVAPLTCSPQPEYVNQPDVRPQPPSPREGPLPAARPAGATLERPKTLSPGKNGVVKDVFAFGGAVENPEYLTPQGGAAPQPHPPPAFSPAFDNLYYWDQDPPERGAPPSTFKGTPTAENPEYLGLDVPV
# Method: An enzyme linked immunosorbent assays (ELISA) was conducted to measure the kinase activity of HER-2 in vitro.
# a. Wash Buffer (PBS-T Buffer): 1×PBS (137 mM NaCl; 2.7 mM KCl, 4.3 mM Na2HPO4, 1.4 mM KH2PO4, adjust the pH to 7.2) and 0.05% Tween-20.
# b. 1% Bovine Serum Albumin (BSA, Calbiochem #136593) in PBS-T.
# c. Stop Buffer: 50 mM EDTA, pH 8.0.
# d. DELFIA® Europium-labeled Anti-mouse IgG (PerkinElmer Life Sciences #AD0124).
# e. DELFIA® Enhancement Solution (PerkinElmer Life Sciences #1244-105).
# f. DELFIA® Streptavidin coated, 96-well, yellow plate (PerkinElmer Life Sciences #AAAND-0005).
# g. HER-2/ErbB2 kinase (Invitrogen corporation #PV3366).
# h. 10 mM ATP solution (Cell signaling technology #9804).
# i. FLT3 (Tyr589) Biotinylated Peptide (Cell signaling technology #1305).
# j. Phospho-Tyrosine Mouse mAb (P-Tyr-100) (Cell signaling technology #9411).
# k. HTScan™ Tyrosine Kinase Buffer (4×)
# (Cell signaling technology #9805).
# l. 1.25 M DTT (1000×) (Cell signaling technology).
# The following protocol was used:
# 1. Dilute test compound with DMSO to the desired final assay concentration. Add 1 μl test compound for every assay, to the negative control.
# 2. Dilute 6 μM substrate peptide (Tyr589) 1:1 with dH2O, add 15 μl to every assay.
# 3. Immediately transfer HER-2 enzyme from −80° C. to ice. Allow enzyme to thaw on ice.
# 4. Take 4.5 μg HER-2 enzyme to the enzyme tube.
# 5. Add 10 μl of DTT (1.25 M) to 2.5 ml of 4×HTScan™ Tyrosine Kinase Buffer (240 mM HEPES pH 7.5, 20 mM MgCl2, 20 mM MnCl2, 12 μM Na3VO4) to make DTT/Kinase buffer.
# 6. Transfer 0.75 ml of DTT/Kinase buffer to each enzyme tube to make 4× reaction cocktail. Add 7.5 μl 4× reaction cocktail to every assay.
# 7. Add 4 μl ATP (10 mM) to 496 μl dH2O, take 7.5 μl for every assay. Final Assay Conditions for a 30 μl Reaction
# Incubate reaction tube at 25° C. for 60 minutes. 9. Add 30 μl/assay stop buffer (50 mM EDTA, pH 8.0) to stop the reaction. 10. Transfer 25 μl of each reaction and 75 μl dH2O/well to a 96-well streptavidin coated plate and incubate, with shaking at room temperature for 60 minutes. 11. Wash three times with 200 μl/well PBS-T buffer. Pat plate on paper towel to remove excess liquid. 12. Dilute primary antibody, Phospho-Tyrosine mAb (P-Tyr-100), 1:1000 in PBS-T buffer with 1% BSA. Add 100 μl diluted primary antibody to each well. 13. Incubate, with shaking at room temperature for 60 minutes. 14. Wash as described above in step 11. 15. Dilute Europium labeled anti-mouse IgG 1:500 in PBS-T buffer with 1% BSA. Add 100 μl diluted antibody to each well. 16. Incubate, with shaking at room temperature for 30 minutes. 17. Wash five times with 200 μl/well PBS-T buffer. Pat plate on paper towel to remove excess liquid. 18. Add 100 μl/well DELFIA® Enhancement Solution. 19. Incubate, with shaking at room temperature for 5 minutes. 20. Detect 615 nm fluorescence emission with appropriate Time-Resolved Plate Reader.
# Calculate the inhibition rate: IR (%)=100−100*(X−B)/(N−B)
# X=the fluorescence value of the well contained test compound
# The IC50 value can be derived from the IRs of compounds at different concentration gradients.
SMILES,pIC50 [1],pIC50 [2]
"Cc1c(/C=C2\C(=O)Nc3cccc(-c4cccc(Cl)c4F)c32)[nH]c2c1C(=O)N(CCN1CCCC1)CC2 [Example 68, 2-[4-(3-Chloro-2-fluoro-phenyl)-2-oxo-1,2-dihydro-indol-3-ylidenemethyl]-3-methyl-5-(2-pyrrolidin-1-yl-ethyl)-1,5,6,7-tetrahydro-pyrrolo[3,2-e]pyridin-4-one]",4.86,6.28
"Cc1c(/C=C2\C(=O)Nc3cccc(Br)c32)[nH]c2c1C(=O)N(CCN1CCCC1)CC2 [Example 69, 2-(4-Bromo-2-oxo-1,2-dihydro-indol-3-ylidenemethyl)-3-methyl-5-(2-pyrrolidin-1-yl-ethyl)-1,5,6,7-tetrahydro-pyrrolo[3,2-c]pyridin-4-one]",6.70,6.04
"Cc1c(/C=C2\C(=O)Nc3cccc(C4CCNCC4)c32)[nH]c2c1C(=O)N(CCN1CCCC1)CC2 [Example 71, 3-Methyl-2-(2-oxo-4-piperidin-4-yl-1,2-dihydro-indol-3-ylidenemethyl)-5-(2-pyrrolidin-1-yl-ethyl)-1,5,6,7-tetrahydro-pyrrolo[3,2-c]pyridin-4-one]",6.23,5.96
